What was measured:
[1] = molecular target: T1, Mcl-1/Bim interaction, recombinant human Mcl-1 (171-327) (Homo sapiens, UniProt Q07820); test: Cell free Mcl-1: Bim Affinity Assay (Mcl-1 HTRF); format: binding
T1 construct: made in house
Method in brief: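 TR-FRET competition assay with biotinylated human Bim peptide (residues 51-76); reaction plates incubated overnight before reading. IC50 values came from duplicate data fitted to a four-parameter sigmoidal competition curve.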

[2] = tested on: OPM-2 human multiple myeloma cell line; test: Cell Viability Assay (OPM-2 10 FBS); format: cell-based; settings: OPM-2 cells, CellTiter-Glo
Method in brief: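 Plated at 3000 cells/well in 10% FBS complete medium, the cells received a serial compound dilution series and incubated 16 h at 37 °C with 5% CO2. CellTiter-Glo was then added; IC50 values were fitted with a logistic 4-parameter model.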

[3] = TR-FRET, 0.1 nM Mcl-1 (171-327), 0.05 nM biotin-Bim (51-76)
[4] = Homo sapiens, OPM-2, 16 h, 16 h
[5] = cell free Mcl-1:Bim TR-FRET, recombinant human Mcl-1 (171-327)
[6] = Homo sapiens, OPM-2, 16 h, 16 h incubation

T1 sequence (Q07820 171-327): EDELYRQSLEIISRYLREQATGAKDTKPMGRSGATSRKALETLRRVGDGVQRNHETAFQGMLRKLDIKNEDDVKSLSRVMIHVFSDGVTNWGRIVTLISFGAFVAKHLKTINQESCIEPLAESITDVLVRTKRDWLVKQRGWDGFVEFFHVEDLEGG

Structure (SMILES)	IC50 [1, 3] [nM]	IC50 [2, 4] [nM]	IC50 [1, 5] [nM]	IC50 ([2]; 16 h) [nM]	IC50 [2, 6] [nM]
CC1CC(N(C)C)CC(O)C2CCC2CN2CC3(CCCc4cc(Cl)ccc43)COc3ccc(cc32)C(=O)NS(=O)(=O)C1C (single isomer, unassigned) [Example 248]	0.701	2160	–	–	–
C=C1CCCC[C@@H](CC)S(=O)(=O)NC(=O)c2ccc3c(c2)N(C[C@@H]2CC[C@@H]12)C[C@@]1(CCCc2cc(Cl)ccc21)CO3 [Example 859, (1S,3′R,6′R,12′R)-6-chloro-12′-ethyl-7′-methylidene-3,4-dihydro-2H,15′H-spiro[naphthalene-1,22′-[20]oxa[13]thia[1,14]diazatetracyclo[14.7.2.0^3,6.0^19,24]pentacosa [16,18,24]trien]-15′-one 13′,13′-dioxide]	–	11500	15.8	–	–
O=C1NS(=O)(=O)N2CCOC[C@H]2C/C=C/[C@H](O)[C@@H]2CC[C@H]2CN2C[C@@]3(CCCc4cc(Cl)ccc43)COc3ccc1cc32 (single isomer, unassigned) [Example 343]	7.27	6490	–	–	–
C[C@@H]1C/C=C/[C@H](O)[C@@H]2CC[C@H]2CN2C[C@@]3(CCCc4cc(Cl)ccc43)COc3ccc(cc32)C(=O)NS(=O)(=O)N1 [Example 71, (1S,3′R,6′R,7′S,8′E,11R)-6-chloro-7′-hydroxy-11′-methyl-3,4-dihydro-2H,15′H-spiro[naphthalene-1,22′-[20]oxa[13]thia[1,12,14]triazatetracyclo[14.7.2.0^3,6.0^19,24]pentacosa[8,16,18,24]tetraen]-15′-one 13′,13′-dioxide]	2.62	3160	–	–	–
C[C@@H]1CC/C=C/[C@H](O[C@H]2CCOC2=O)[C@@H]2CC[C@H]2CN2C[C@@]3(CCCc4cc(Cl)ccc43)COc3ccc(cc32)C(=O)NS1(=O)=O [Example 413]	0.358	374	–	–	–
COCCOC1C=CCC2COCCC2S(=O)(=O)NC(=O)c2ccc3c(c2)N(CC2CCC21)CC1(CCCc2cc(Cl)ccc21)CO3 (single isomer, unassigned) [Example 322]	0.4	123	–	–	–
COCCN1CCC/C=C/[C@H](O)[C@@H]2CC[C@H]2CN2C[C@@]3(CCCc4cc(Cl)ccc43)COc3ccc(cc32)C(=O)NS1(=O)=O [Example 665, (1S,3′R,6′R,7′S,8′E)-6-chloro-7′-hydroxy-13′-(2-methoxyethyl)-3,4-dihydro-2H,16′H-spiro[naphthalene-1,23′-[21]oxa[14]thia[1,13,15]triazatetracyclo[15.7.2.0^3,6.0^20,25]hexacosa[8,17,19,25]tetraen]-16′-one 14′,14′-dioxide]	–	1320	2.89	–	–
Cn1cnc(CO[C@H]2/C=C/C[C@H]3CCC[C@@H]3S(=O)(=O)NC(=O)c3ccc4c(c3)N(C[C@@H]3CC[C@H]32)C[C@@]2(CCCc3cc(Cl)ccc32)CO4)n1 (single isomer, unassigned) [Example 329]	2.58	–	–	3480	–
CO[C@H]1/C=C/[C@H](C)[C@H](C)[C@@H](C)S(=O)(=O)NC(=O)c2ccc3c(c2)N(C[C@@H]2CC[C@H]21)C[C@@]1(CCCc2cc(Cl)ccc21)CO3 [Example 1047, (1S,3′R,6′R,7′S,8′E,10′S,11′S,12′R)-6-chloro-7′-methoxy-10′,11′,12′-trimethyl-3,4-dihydro-2H,15′H-spiro[naphthalene-1,22′-[20]oxa[13]thia[1,14]diazatetracyclo[14.7.2.0^3,6.0^19,24]pentacosa [8,16,18,24]tetraen]-15′-one 13′,13′-dioxide]	0.424	–	–	–	300
C[C@@H]1[C@@H](C)C/C=C/[C@H](OCC(=O)N2CC(O)C2)[C@@H]2CC[C@H]2CN2C[C@@]3(CCCc4cc(Cl)ccc43)COc3ccc(cc32)C(=O)NS1(=O)=O [Example 304, (1S,3′R,6′R,7′S,8′E,11′S,12′R)-6-chloro-7′-(2-(3-hydroxy-1-azetidinyl)-2-oxoethoxy)-11′,12′-dimethyl-3,4-dihydro-2H,15′H-spiro[naphthalene-1,22′-[20]oxa[13]thia[1,14]diazatetracyclo[14.7.2.0^3,6.0^19,24]pentacosa [8,16,18,24]tetraen]-15′-one 13′,13′-dioxide]	0.151	2280	–	–	–
O=C1NS(=O)(=O)N2CCOC[C@H]2C/C=C\[C@H](O)[C@@H]2CC[C@H]2CN2C[C@@]3(CCCc4cc(Cl)ccc43)COc3ccc1cc32 (single isomer, unassigned) [Example 344]	2.11	912	–	–	–
CC(=O)NCCO[C@H]1/C=C/C[C@H](C)[C@@H](C)S(=O)(=O)NC(=O)c2ccc3c(c2)N(C[C@@H]2CC[C@H]21)C[C@@]1(CCCc2cc(Cl)ccc21)CO3 [Example 732, N-(2-(((1S,3′R,6′R,7′S,8′E,11′S,12′R)-6-chloro-11,12′-dimethyl-13′, 13′-dioxido-15′-oxo-3,4-dihydro-2H-spiro[naphthalene-1,22′-[20]oxa[13]thia[1,14]diazatetracyclo[14.7.2.0^3,6.0^19,24]pentacosa[8,16,18,24]tetraen]-7′-yl)oxy)ethyl)acetamide]	–	170	0.244	–	–
O=C1NS(=O)(=O)[C@@H](CCS(=O)(=O)Cc2ccccc2)CC/C=C/[C@H](O)[C@@H]2CC[C@H]2CN2C[C@@]3(CCCc4cc(Cl)ccc43)COc3ccc1cc32 (single isomer, unassigned) [Example 162]	0.979	–	–	8400	–
COCC1CC(C)C=CC(O)C2CCC2CN2CC3(CCCc4cc(Cl)ccc43)COc3ccc(cc32)C(=O)NS1(=O)=O (single isomer, unassigned) [Example 471]	–	141	0.188	–	–
CC[C@H]1C/C=C/[C@H](O)[C@@H]2CC[C@H]2CN2C[C@@]3(CCCc4cc(Cl)ccc43)COc3ccc(cc32)C(=O)NS(=O)(=O)N1 (single isomer, unassigned) [Example 686]	–	–	0.597	993	–
C[C@@H]1CC/C=C/[C@H](OCC(=O)O)[C@@H]2CC[C@H]2CN2C[C@@]3(CCCc4cc(Cl)ccc43)COc3ccc(cc32)C(=O)NS1(=O)=O [Example 407, (((1S,3′R,6′R,7′S,8′E,12′R)-6-chloro-12′-methyl-13′,13′-dioxido-15′-oxo-3,4-dihydro-2H-spiro[naphthalene-1,22′-[20]oxa[13]thia[1,14]diazatetracyclo[14.7.2.0^3,6.0^19,24]pentacosa [8,16,18,24]tetraen]-7′-yl)oxy)acetic acid]	0.127	14400	–	–	–
CO[C@@H]1/C=C/CCCCS(=O)(=O)NC(=O)c2ccc3c(c2)N(C[C@@H]2CC[C@H]21)C[C@@]1(CCCc2cc(Cl)ccc21)CO3 [Example 229, (1S,3′R,6′R,7′R,8′E)-6-chloro-7′-methoxy-3,4-dihydro-2H,16′H-spiro[naphthalene-1,23′-[21]oxa[14]thia[1,15]diazatetracyclo[15.7.2.0^3,6.0^20,25]hexacosa[8,17,19,25]tetraen]-16′-one 14′,14′-dioxide]	1.62	1720	–	–	–
COCCO[C@H]1/C=C/[C@H](C)[C@H](C)[C@@H](C)S(=O)(=O)NC(=O)c2ccc3c(c2)N(C[C@@H]2CC[C@H]21)C[C@@]1(CCCc2cc(Cl)ccc21)CO3 [Example 1048, (1S,3′R,6′R,7′S,8′E,10′S,11′S,12′R)-6-chloro-7′-(2-methoxyethoxy)-10′,11′,12′-trimethyl-3,4-dihydro-2H,15′H-spiro[naphthalene-1,22′-[20]oxa[13]thia[1,14]diazatetracyclo[14.7.2.0^3,6.0^19,24]pentacosa [8,16,18,24]tetraen]-15′-one 13′,13′-dioxide]	0.299	–	–	–	90.8
COCC[C@@H]1[C@@H](C)C/C=C/[C@H](O)[C@@H]2CC[C@H]2CN2C[C@@]3(CCCc4cc(Cl)ccc43)COc3ccc(cc32)C(=O)NS1(=O)=O (single isomer, unassigned) [Example 393]	0.213	–	–	137	–
C[C@@H]1[C@@H](C)C/C=C/[C@H](OCCN(C)C)[C@@H]2CC[C@H]2CN2C[C@@]3(CCCc4cc(Cl)ccc43)COc3ccc(cc32)C(=O)NS1(=O)=O [Example 513, (1S,3′R,6′R,7′S,8′E,11′S,12′R)-6-chloro-7′-(2-(dimethylamino)ethoxy)-11′,12′-dimethyl-3,4-dihydro-2H,15′H-spiro[naphthalene-1,22′-[20]oxa[13]thia[1,14]diazatetracyclo[14.7.2.0^3,6.0^19,24]pentacosa [8,16,18,24]tetraen]-15′-one 13′,13′-dioxide]	–	184	0.395	–	–
COCC1COCCN1CCOC1C=CCC(C)C(C)S(=O)(=O)NC(=O)c2ccc3c(c2)N(CC2CCC21)CC1(CCCc2cc(Cl)ccc21)CO3 (mixture of isomers) [Example 530]	–	–	0.763	134	–
COCCN1[C@@H](C)C/C=C\[C@H](O)[C@@H]2CC[C@H]2CN2C[C@@]3(CCCc4cc(Cl)ccc43)COc3ccc(cc32)C(=O)NS1(=O)=O (single isomer, unassigned) [Example 63]	0.728	810	–	–	–
C[C@@H]1[C@@H](C)C/C=C/[C@H](OCC(=O)N2CCC(F)(F)CC2)[C@@H]2CC[C@H]2CN2C[C@@]3(CCCc4cc(Cl)ccc43)COc3ccc(cc32)C(=O)NS1(=O)=O [Example 315, (1S,3′R,6′R,7′S,8′E,11′S,12′R)-6-chloro-7′-(2-(4,4-difluoro-1-piperidinyl)-2-oxoethoxy)-11′,12′-dimethyl-3,4-dihydro-2H,15′H-spiro[naphthalene-1,22′-[20]oxa[13]thia[1,14]diazatetracyclo[14.7.2.0^3,6.0^19,24]pentacosa [8,16,18,24]tetraen]-15′-one 13′,13′-dioxide]	0.774	421	–	–	–

— US12091425B2 (AMGEN INC., priority 2016, dated 2024)
